This is an account of results in the supplement of paper PMC11208160.
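Further: IS621 bridge recombinase in Escherichia coli cells against a fixed T5 target plasmid.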

A short description of this series: recombinant UMI read abundance after kanamycin selection (control-corrected) (log10(CPM+1)); higher = more efficient recombination; extreme values may be limits of the assay; sequences stand for … in AGTGCAGAGAAAATCGGCCAGTTTTCTCTGCCTGCAGTCCGCATGCCGTGGGACCCCTTGGGTTCTAACCTGTTGCCTAGATTTATGCAGCGGACTGCCTTTCTCCCAAAGTGATAAACCGG…AGGTTGGTTTCACT; site = the 11-nt donor. In outline:
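The measure is log10(CPM+1) for recombinant UMIs. These were PCR-amplified across the donor–target junction and sequenced after Escherichia coli carrying a donor and donor-binding-loop pair library and a target plasmid with T7-inducible IS621 bridge recombinase was plated on IPTG (0.07 mM) plus kanamycin or unselected. CPM were averaged over two replicates and scaled by control-derived factors.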
As for “GGATACACATGGACCGGTTTTCCCGGTAATCCGTATTTGCC (site GGATAAACTGG)”, the “recombinant UMI read abundance (log10)” value was determined as 0.
In the case of “GGATACACATGGACCGGTTTTCCCGGTAATCCGTATTTGCC (site GGATACACTGG)”, the “recombinant UMI read abundance (log10)” value worked out at 2.97.
As to “GGATACACATGGACCGGTTTTCCCGGTAATCCGTATTTGCC (site GGATAGACTGG)”, the “recombinant UMI read abundance (log10)” value worked out at 0.
The same measure for “GGATACACATGGACCGGTTTTCCCGGTAATCCGTATTTGCC (site GGATATACTGG)”: 0; for “GGATAGACATGGACCGGTTTTCCCGGTAATCCGTATTTGCA (site GGATAGACTAG)”: 0.763; for “GGATAGACATGGACCGGTTTTCCCGGTAATCCGTATTTGCA (site GGATAGACTCG)”: 0.831.
Next, “GGATAGACATGGACCGGTTTTCCCGGTAATCCGTATTTGCA (site GGATAGACTGG)”: 0.112.
Next, “GGATAGACATGGACCGGTTTTCCCGGTAATCCGTATTTGCA (site GGATAGACTTG)”: 2.79; “GGATAGACATGGACCGGTTTTCCCGGTAATCCGTATTTGCG (site GGATAGACTAG)”: 2.19; “GGATAGACATGGACCGGTTTTCCCGGTAATCCGTATTTGCG (site GGATAGACTCG)”: 2.55.
Take “GGATAGACATGGACCGGTTTTCCCGGTAATCCGTATTTGCG (site GGATAGACTGG)”: the “recombinant UMI read abundance (log10)” value was 1.52.
The same measure for “GGATAGACATGGACCGGTTTTCCCGGTAATCCGTATTTGCG (site GGATAGACTTG)”: 2.13.
The same measure for “GGCAAGACATGGACCGGTTTTCCCGGTAATCCGTATTTGCA (site AGGAAGACTTG)”: 0; for “GGCAAGACATGGACCGGTTTTCCCGGTAATCCGTATTTGCA (site GGCAAGACTTG)”: 2.62.
The same measure for “GGCAATCCATGGACCGGTTTTCCCGGTAATCCGTATTTGAG (site GGCAATCCTAT)”: 0.
With “GGCAATCCATGGACCGGTTTTCCCGGTAATCCGTATTTGAG (site GGCAATCCTCT)”, the “recombinant UMI read abundance (log10)” value is 0.41.
The same measure for “GGCAATCCATGGACCGGTTTTCCCGGTAATCCGTATTTGAG (site GGCAATCCTGT)”: 0.
The same measure for “GGCAATCCATGGACCGGTTTTCCCGGTAATCCGTATTTGAG (site GGCAATCCTTT)”: 0.0105; for “GGCAATCCATGGACCGGTTTTCCCGGTAATCCGTATTTGGA (site GGCAATCCTTA)”: 0.
For the sequence “GGCAATCCATGGACCGGTTTTCCCGGTAATCCGTATTTGGA (site GGCAATCCTTC)”, the “recombinant UMI read abundance (log10)” value was found to be 0.
The same measure for “GGCAATCCATGGACCGGTTTTCCCGGTAATCCGTATTTGGA (site GGCAATCCTTG)”: 0; for “GGCAATCCATGGACCGGTTTTCCCGGTAATCCGTATTTGGA (site GGCAATCCTTT)”: 0.00891; for “GGCACGACATGGACCGGTTTTCCCGGTAATCCGTATTTGCG (site GGCACGACTCG)”: 0.903.
Turning to “GGCACGCCATGGACCGGTTTTCCCGGTAATCCGTATTTGTA (site GACACGCCTTA)”, the “recombinant UMI read abundance (log10)” value was 0.00602.
Next, “GGCACGCCATGGACCGGTTTTCCCGGTAATCCGTATTTGTA (site GCCACGCCTTA)”: 0.006.
Next, “GGCACGCCATGGACCGGTTTTCCCGGTAATCCGTATTTGTA (site GGCACGCCTTA)”: 0.523.
For the sequence “GGCACGCCATGGACCGGTTTTCCCGGTAATCCGTATTTGTA (site GTCACGCCTTA)”, the “recombinant UMI read abundance (log10)” value came to 0.00471.
As for “GGCACGTCATGGACCGGTTTTCCCGGTAATCCGTATTTGTT (site GGAACGTCTAA)”, the “recombinant UMI read abundance (log10)” value is 0.027.
As to “GGCACGTCATGGACCGGTTTTCCCGGTAATCCGTATTTGTT (site GGCACGTCTAA)”, the “recombinant UMI read abundance (log10)” value was 0.595.
Next, “GGCACGTCATGGACCGGTTTTCCCGGTAATCCGTATTTGTT (site GGGACGTCTAA)”: 0.00471; “GGCACGTCATGGACCGGTTTTCCCGGTAATCCGTATTTGTT (site GGTACGTCTAA)”: 0.0192; “GGCAGAGCATGGACCGGTTTTCCCGGTAATCCGTATTTGAG (site GGCAGAGCTCT)”: 1.67.
The same measure for “GGCCAAACATGGACCGGTTTTCCCGGTAATCCGTATTTGAC (site GGCCAAACTGT)”: 1.73.
Next, “GGCCACCCATGGACCGGTTTTCCCGGTAATCCGTATTTGTA (site GGCCACCCTAA)”: 0.0187; “GGCCACCCATGGACCGGTTTTCCCGGTAATCCGTATTTGTA (site GGCCACCCTCA)”: 0.014; “GGCCACCCATGGACCGGTTTTCCCGGTAATCCGTATTTGTA (site GGCCACCCTGA)”: 0.
On to “GGCCACCCATGGACCGGTTTTCCCGGTAATCCGTATTTGTA (site GGCCACCCTTA)”, for which the “recombinant UMI read abundance (log10)” value was found to be 0.081.
Next, “GGCCACCCATGGACCGGTTTTCCCGGTAATCCGTATTTGTG (site GGCCACCCTAA)”: 0.00884.
Next, “GGCCACCCATGGACCGGTTTTCCCGGTAATCCGTATTTGTG (site GGCCACCCTCA)”: 0.00742.
Next, “GGCCACCCATGGACCGGTTTTCCCGGTAATCCGTATTTGTG (site GGCCACCCTGA)”: 0.
In the case of “GGCCACCCATGGACCGGTTTTCCCGGTAATCCGTATTTGTG (site GGCCACCCTTA)”, the “recombinant UMI read abundance (log10)” value is 0.0265.
The same measure for “GGCCACGCATGGACCGGTTTTCCCGGTAATCCGTATTTGTT (site GGCCACACTAA)”: 0.148; for “GGCCACGCATGGACCGGTTTTCCCGGTAATCCGTATTTGTT (site GGCCACCCTAA)”: 0.023.
“GGCCACGCATGGACCGGTTTTCCCGGTAATCCGTATTTGTT (site GGCCACGCTAA)”: the “recombinant UMI read abundance (log10)” value was found to be 0.96.
Turning to “GGCCACGCATGGACCGGTTTTCCCGGTAATCCGTATTTGTT (site GGCCACTCTAA)”, the “recombinant UMI read abundance (log10)” value worked out at 0.0156.
Next, “GGCCATCCATGGACCGGTTTTCCCGGTAATCCGTATTTGAA (site GGCAATCCTTT)”: 0.00447; “GGCCATCCATGGACCGGTTTTCCCGGTAATCCGTATTTGAA (site GGCCATCCTTT)”: 0.00888; “GGCCATCCATGGACCGGTTTTCCCGGTAATCCGTATTTGAA (site GGCGATCCTTT)”: 0.00507.
Take “GGCCATCCATGGACCGGTTTTCCCGGTAATCCGTATTTGAA (site GGCTATCCTTT)”: the “recombinant UMI read abundance (log10)” value is 0.0589.
Next, “GGCCCCCCATGGACCGGTTTTCCCGGTAATCCGTATTTGTT (site GGCCACCCTAA)”: 0.0272; “GGCCCCCCATGGACCGGTTTTCCCGGTAATCCGTATTTGTT (site GGCCCCCCTAA)”: 0.0352.
The same measure for “GGCCCCCCATGGACCGGTTTTCCCGGTAATCCGTATTTGTT (site GGCCGCCCTAA)”: 0.0281; for “GGCCCCCCATGGACCGGTTTTCCCGGTAATCCGTATTTGTT (site GGCCTCCCTAA)”: 0.0156; for “GGCCTAGCATGGACCGGTTTTCCCGGTAATCCGTATTTGTT (site AGCCTAGCTAA)”: 0.
The same measure for “GGCCTAGCATGGACCGGTTTTCCCGGTAATCCGTATTTGTT (site CGCCTAGCTAA)”: 0.0146; for “GGCCTAGCATGGACCGGTTTTCCCGGTAATCCGTATTTGTT (site GGCCTAGCTAA)”: 0.00233.
Turning to “GGCCTAGCATGGACCGGTTTTCCCGGTAATCCGTATTTGTT (site TGCCTAGCTAA)”, the “recombinant UMI read abundance (log10)” value worked out at 0.0108.
Next, “GGCGATACATGGACCGGTTTTCCCGGTAATCCGTATTTGCT (site GGCGATACTAG)”: 1.5; “GGCGCTACATGGACCGGTTTTCCCGGTAATCCGTATTTGAT (site GGCGCTACTAT)”: 0.866; “GGCGGCTCATGGACCGGTTTTCCCGGTAATCCGTATTTGTG (site GGCGGCTCTCA)”: 1.23.
The same measure for “GGCGTGGCATGGACCGGTTTTCCCGGTAATCCGTATTTGGT (site GGAGTGGCTAC)”: 0.00572.
The same measure for “GGCGTGGCATGGACCGGTTTTCCCGGTAATCCGTATTTGGT (site GGCGTGGCTAC)”: 0.511; for “GGCGTGGCATGGACCGGTTTTCCCGGTAATCCGTATTTGGT (site GGGGTGGCTAC)”: 0.00519; for “GGCGTGGCATGGACCGGTTTTCCCGGTAATCCGTATTTGGT (site GGTGTGGCTAC)”: 0.00854.
With “GGCTAGACATGGACCGGTTTTCCCGGTAATCCGTATTTGCC (site GGATAGACTGG)”, the “recombinant UMI read abundance (log10)” value stood at 0.
Consider “GGCTAGACATGGACCGGTTTTCCCGGTAATCCGTATTTGCC (site GGCTAGACTGG)”, for which the “recombinant UMI read abundance (log10)” value worked out at 0.563.
Next, “GGCTAGACATGGACCGGTTTTCCCGGTAATCCGTATTTGCC (site GGGTAGACTGG)”: 0; “GGCTAGACATGGACCGGTTTTCCCGGTAATCCGTATTTGCC (site GGTTAGACTGG)”: 0.
